The subject of assay [1] is tumors obtained from U87-MG grafts on the CAM. Put plainly: Experimental tumors from U87-MG grafts on the CAM: vascularization, Ki-67, vimentin. To be noted: for Tumor vascularization, density of the vessels that irrigate the tumor (in words): topical 250 μg/mL; for Quantification of the Ki-67 labeling, Center 1 / Quantification of the Ki-67 labeling, Center 2 / Quantification of the Ki-67 labeling, Edge 1 / Quantification of the Ki-67 labeling, Edge 2: treated 48 hours; for Quantification of the Ki-67 labeling, Center 1 / Quantification of the Ki-67 labeling, Center 2: tumor center; for Quantification of the Ki-67 labeling, Edge 1 / Quantification of the Ki-67 labeling, Edge 2: tumor edge. The class given is in vivo, chicken embryo. As to the method: To obtain a tumor, the U87-MG cells are inoculated at a rate of 200,000 cells in 75-cm^2 flasks in the presence of a basal medium. A volume that contains 4.10^6 cells is then sampled, and after centrifuging for 5 minutes with 311 g, the supernatant is eliminated, and the cells are resuspended in 20 μL of differential medium that is deposited in the center of a silicone ring that was previously applied on the CAM of an embryo at ED9. Once the grafting is done, the embryo is set out to incubate. At ED11, the tumors can be observed under a MZFL3 binocular (Leica, Paris, France). At this stage, the tumors are either treated topically (apical part of the tumor) by 30 μL of the oligopeptide according to the invention at 250 μg/mL or else by 30 μL of sterile distilled water up to stage ED13. The tumors are then sampled, and cryosections are produced to make possible immunohistochemical analyses. […] The macroscopic observations of tumors as well as the diffusion of fluorescein into the vessels are made with a fluorescence binocular (MZFL3, Leica, France).
A volume that contains 4.10^6 cells is then sampled and after centrifuging for 5 minutes with 300 g, the supernatant is eliminated, and the cells are resuspended in 20 μL of differential medium that is deposited in the center of a silicone ring that was previously applied on the CAM of an embryo at ED9. Once the grafting has been done, the embryo is set out to incubate.
At ED11, the tumors can be observed under a MZFL3 binocular (Leica, Paris, France), and it is possible to track the change in the tumor growth up to ED14.
The tumors that are developed on the CAM are observed on the chorioallantoic membrane using a MZFL3-type binocular (Leica, France) before being sampled.
The vascular endothelium of the vessels of a chicken is labeled using a lectin, SNA-1 (Sambuccus Nigra Agglutinin-1, Vector Laboratories), coupled to FITC (fluorescein isothiocyanate).
After 10 minutes of attachment with 200 μL of 4% PBS 1X-PFA at ambient temperature, the sections are incubated with a solution of 0.05% TBS 1X-Tween-0.1% Trypsin, pH 7.6, for 10 minutes. They are then washed 3 times in PBS 1X, and 100 μL of a dilution with 1/200th of the SNA-1 lectin in a solution of 0.05% TBS 1X-Tween with pH 7.6 is applied for 1 hour. After washing cycles (the last of which is carried out with distilled water), the slides are then mounted as described in the preceding paragraph and observed with a fluorescence microscope. Counts of vessels were made from photos with a magnification ×100 and in a marginal zone spreading 600 μm from the edge of the tumor. An ANOVA-type statistical test was then carried out to validate the relevance of the effect observed. The SNA-1 lectin specifically labels the chicken endothelial cells that constitute the vascular wall.
The tumors are attached in 4% PBS 1X-PFA (24 hours) and then dehydrated in absolute ethanol and then in pure toluene and next are enclosed and preserved in a paraffin block. 4-μm sections are made from a microtome and deposited on Superfrost plus slides, and then dried in an oven at 50° C. for one night.
To carry out the immunolabeling, the sections are dewaxed and then rehydrated by baths of decreasing concentrations of ethanol and then rinsed in PBS 1X.
So as to unmask the antigenic sites, the slides are incubated in a citrate buffer with pH 7 (200 μM of citric acid; 9.8 mmol of sodium citrate) and undergo a heating cycle (4×5 minutes at 750 W in the microwave). The endogenic peroxidases are inhibited by carrying out a 10-minute bath in methanol-5%H2O2. After 3 washing cycles, the saturation of PBS-3% BSA and then the incubation with the anti-Ki67 antibody are carried out. After rinsing with PBS 1X, an HRP-conjugated secondary antibody is applied for 1 hour at ambient temperature. […] A counter-staining is carried out in hematoxylin, and the sections are mounted in an aqueous solution before being observed with a Leica DMRX microscope.

Assay [2] has as its system genes in experimental tumors obtained from the CAM. The assay is described as follows: Quantitative analysis of the mRNA in experimental tumors obtained from CAM. It is filed as in vivo, chicken. To be noted: for Mean RQ ANGPT1 / Mean RQ ANGPT2 / Mean RQ CD36 / Mean RQ FGF2 / Mean RQ ITGB1 / Mean RQ KDR / Mean RQ PDGFB / Mean RQ PDGFRB / Mean RQ PLAU / Mean RQ TEK / Mean RQ TIE-1 / Mean RQ TIMP1 / Mean RQ TIMP4 / Mean RQ VEGFA: CAM tumors, relative expression, control = 1, triplicate; for Increase of expression of genes coding for the receptors (ITGB1, PDGFRβ, KDR, TIE-1, TIE-2, CD36) in relation to the control: experimental tumors obtained from the CAM. The text has this: These receptors belong to the chicken species and are therefore found in the host vessels. […] Furthermore, the overexpression of ITGB1 at the same time as that of CD36 differentiates the peptide according to the invention (NX) from the TSP-1 (TSP).

[3] abbreviates: U87-MG tumor on CAM, listed as TSP1.

Several values for one entry are separate records, joined by “and”; a condition that tells them apart may be missing. Identical values can stand only once. Entries after “also recorded” stand apart in the source; their conditions may differ. Some results are limits rather than exact numbers.

On to “thrombospondin 1 [TSP, reference compound]”, for which, in assay [1] (U87-MG tumor on CAM), the “Tumor vascularization, density of the vessels that irrigate the tumor (in words)” value is “produces the same effects but to a lesser degree”. Besides, in assay [1] (setting [3]), the “Quantification of the Ki-67 labeling, Center 1” value was 300 and 233; the “Quantification of the Ki-67 labeling, Center 2” value was 292 and 350; the “Quantification of the Ki-67 labeling, Edge 1” value was 227 and 286; the “Quantification of the Ki-67 labeling, Edge 2” value is 314 and 228. Also, in assay [2], the “Mean RQ ANGPT1” value was 0.5106, the “Mean RQ ANGPT2” value stood at 0.2678, the “Mean RQ CD36” value worked out at 2.965 and the “Mean RQ FGF2” value is 0.3429. Also, in assay [2], the “Mean RQ ITGB1” value turned out to be 1.317, the “Mean RQ KDR” value is on record as 1.557, the “Mean RQ PDGFB” value was determined as 0.6327 and the “Mean RQ PDGFRB” value is given as 2.544. In assay [2], the “Mean RQ PLAU” value is 1.491, the “Mean RQ TEK” value amounted to 1.385, the “Mean RQ TIE-1” value amounted to 1.79 and the “Mean RQ TIMP1” value is 0.4492. For the same substance, in assay [2], the “Mean RQ TIMP4” value was determined as 0.6642; the “Mean RQ VEGFA” value was determined as 0.5392; the “Increase of expression of genes coding for the receptors (ITGB1, PDGFRβ, KDR, TIE-1, TIE-2, CD36) in relation to the control” value is on record as “on a lesser scale”.
As for “—W—S-G-W—S—S—C—S—R—S—C-G- (WSGWSSCSRSCG; Oligopeptide derived from SCO-Spondin) [NX]”, the “Time to disappearance of pinkish color (capillaries on the surface of the tumor)” value in assay [1] (CAM tumors 1 to 2 mm in diameter) was ≤ 24 h. For the same substance, in assay [1] (U87-MG tumor on CAM), the “SNA-1 labeling of vessels on tumor sections” value is given as “the SNA-1 labeling disappears more specifically into the zone that is close to the surface of the tumor”; the “Quantification of the Ki-67 labeling, Center 1” value was 355.5 and 369; the “Quantification of the Ki-67 labeling, Center 2” value is 383.5 and 370; the “Quantification of the Ki-67 labeling, Edge 1” value is 165 and 184. The “Quantification of the Ki-67 labeling, Edge 2” value in assay [1] (U87-MG tumor on CAM) is 172 and 153. In assay [1] (U87-MG tumor on CAM, listed as oligopeptide according to the invention), the “Tumor vascularization, density of the vessels that irrigate the tumor (in words)” value is recorded as “more effective than the TSP-1; also recorded: significant reduction in the density of the vessels that irrigate the tumor”. The “Tumor cells expressing the vimentin” value in assay [1] (U87-MG tumor on CAM, vimentin/SNA-1 co-labeling) was “reduction in the number of differentiated tumor cells expressing the vimentin”. The “Ki-67 labeling of tumor (in words)” value in assay [1] (tumors in the CAM model, peripheral zone) was “the peripheral zone does not express the Ki67 marker”. For the same substance, in assay [2], the “Mean RQ ANGPT1” value was 0.8241, the “Mean RQ ANGPT2” value came out at 0.6787, the “Mean RQ CD36” value was 3.831 and the “Mean RQ FGF2” value was 0.686. In addition, in assay [2], the “Mean RQ ITGB1” value worked out at 4.07, the “Mean RQ KDR” value came out at 4.207, the “Mean RQ PDGFB” value was 2.104 and the “Mean RQ PDGFRB” value was found to be 4.366. Moreover, in assay [2], the “Mean RQ PLAU” value is on record as 1.151, the “Mean RQ TEK” value is listed as 4.539, the “Mean RQ TIE-1” value is given as 3.961 and the “Mean RQ TIMP1” value is given as 1.237. For the same substance, in assay [2], the “Mean RQ TIMP4” value was determined as 0.6552; the “Mean RQ VEGFA” value came to 1.298; the “Increase of expression of genes coding for the receptors (ITGB1, PDGFRβ, KDR, TIE-1, TIE-2, CD36) in relation to the control” value is 4 factor.

The values above are taken from patent publication US20190255144A1, “SPECIFIC OLIGOPEPTIDES AS ANTI-ANGIOGENIC DRUGS” (NEURONAX, priority 2014, published 2019).
